Test results: US9828396B2, “Alkyne compounds for treatment of complement mediated disorders” (Achillion Pharmaceuticals, Inc., priority 2014, dated 2017)

Each compound was assayed against Human factor D (Homo sapiens (Human), UniProt P00746) (assay: Human Factor D Assay). Details: Human factor D 80 nM, substrate Z-L-Lys-SBzl, assay of Example 12.
Chain of Human factor D (P00746 26-253): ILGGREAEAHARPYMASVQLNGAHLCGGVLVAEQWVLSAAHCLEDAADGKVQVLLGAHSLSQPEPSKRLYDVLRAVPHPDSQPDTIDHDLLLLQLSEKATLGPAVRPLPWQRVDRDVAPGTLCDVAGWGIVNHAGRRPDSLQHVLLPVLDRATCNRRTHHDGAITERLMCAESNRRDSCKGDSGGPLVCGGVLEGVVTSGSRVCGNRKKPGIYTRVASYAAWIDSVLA
Type: biochemical
Outline: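 Serum-purified human factor D (80 nM final) was preincubated 5 min at room temperature with compound in 50 mM Tris, 1 M NaCl, pH 7.5. Z-L-Lys-SBzl and DTNB (100 μM each) were added and OD405 followed kinetically over 30 min; IC50 from non-linear regression of percent inhibition.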
`NC(=O)c1nn(CC(=O)N2C[C@H](F)C[C@H]2C(=O)Nc2cccc(Cl)n2)c2ccc(C#Cc3ccnnc3)cc12` [Compound 80, 1-(2-((2S,4R)-2-(6-chloropyridin-2-ylcarbamoyl)-4-fluoropyrrolidin-1-yl)-2-oxoethyl)-5-(pyridazin-4-ylethynyl)-1H-indazole-3-carboxamide] gave an IC50 of less than 1 µM.
Work on `NC(=O)c1nn(CC(=O)N2C[C@H](F)C[C@H]2C(=O)Nc2nc(Cl)ccc2F)c2ccc(C#Cc3ncc(F)cn3)cc12` [Compound 81, 1-(2-((2S,4R)-2-(6-chloro-3-fluoropyridin-2-ylcarbamoyl)-4-fluoropyrrolidin-1-yl)-2-oxoethyl)-5-((5-fluoropyrimidin-2-yl)ethynyl)-1H-indazole-3-carboxamide] yielded an IC50 of less than 1 µM.
With `NC(=O)c1nn(CC(=O)N2C[C@H](F)C[C@H]2C(=O)Nc2cccc(Cl)n2)c2ccc(C#Cc3cnccn3)cc12` [Compound 82, 1-(2-((2S,4R)-2-(6-chloropyridin-2-ylcarbamoyl)-4-fluoropyrrolidin-1-yl)-2-oxoethyl)-5-(pyrazin-2-ylethynyl)-1H-indazole-3-carboxamide] the IC50 was less than 1 µM.
For `NC(=O)c1nn(CC(=O)N2C[C@H](F)C[C@H]2C(=O)Nc2cccc(-c3ccccc3Cl)c2F)c2ccc(C#Cc3cnccn3)cc12` [Compound 83, 1-(2-((2S,4R)-2-(2′-chloro-2-fluorobiphenyl-3-ylcarbamoyl)-4-fluoropyrrolidin-1-yl)-2-oxoethyl)-5-(pyrazin-2-ylethynyl)-1H-indazole-3-carboxamide], the IC50 was less than 1 µM.
`NC(=O)c1nn(CC(=O)N2C[C@H](F)C[C@H]2C(=O)Nc2cncc(-c3ccccc3Cl)n2)c2ccc(C#Cc3ncc(F)cn3)cc12` [Compound 85, 1-(2-((2S,4R)-2-(6-(2-chlorophenyl)pyrazin-2-ylcarbamoyl)-4-fluoropyrrolidin-1-yl)-2-oxoethyl)-5-((5-fluoropyrimidin-2-yl)ethynyl)-1H-indazole-3-carboxamide] was tested, and the IC50 was less than 1 µM.
Compound `NC(=O)c1nn(CC(=O)N2C[C@H](F)C[C@H]2C(=O)Nc2cncc(-c3c(F)cccc3Cl)n2)c2ccc(C#Cc3ncc(F)cn3)cc12` [Compound 86, 1-(2-((2S,4R)-2-(6-(2-chloro-6-fluorophenyl)pyrazin-2-ylcarbamoyl)-4-fluoropyrrolidin-1-yl)-2-oxoethyl)-5-((5-fluoropyrimidin-2-yl)ethynyl)-1H-indazole-3-carboxamide] has an IC50 of less than 1 µM.
`NC(=O)c1nn(CC(=O)N2C[C@H](F)C[C@H]2C(=O)Nc2cncc(-c3cc(F)c(F)cc3Cl)n2)c2ccc(C#Cc3ncc(F)cn3)cc12` [Compound 87, 1-(2-((2S,4R)-2-(6-(2-chloro-4,5-difluorophenyl)pyrazin-2-ylcarbamoyl)-4-fluoropyrrolidin-1-yl)-2-oxoethyl)-5-((5-fluoropyrimidin-2-yl)ethynyl)-1H-indazole-3-carboxamide] showed an IC50 of less than 1 µM.
In the case of `NC(=O)c1nn(CC(=O)N2C[C@H](F)C[C@H]2C(=O)Nc2cccc(Cl)n2)c2ccc(C#Cc3ncc(F)cn3)cc12` [Compound 88, 1-(2-((2S,4R)-2-(6-chloropyridin-2-ylcarbamoyl)-4-fluoropyrrolidin-1-yl)-2-oxoethyl)-5-((5-fluoropyrimidin-2-yl)ethynyl)-1H-indazole-3-carboxamide], the IC50 is reported as less than 1 µM.
`NC(=O)c1nn(CC(=O)N2C[C@H](F)C[C@H]2C(=O)Nc2cncc(Br)n2)c2ccc(C#Cc3cnccn3)cc12` [Compound 89, 1-(2-((2S,4R)-2-(6-bromopyrazin-2-ylcarbamoyl)-4-fluoropyrrolidin-1-yl)-2-oxoethyl)-5-(pyrazin-2-ylethynyl)-1H-indazole-3-carboxamide] gave an IC50 of less than 1 µM.
Work on `CC(=O)c1nn(CC(=O)N2C[C@H](F)C[C@H]2C(=O)Nc2cccc(Br)n2)c2ccc(C#Cc3ncc(F)cn3)cc12` [Compound 90, (2S,4R)-1-(2-(3-acetyl-5-((5-fluoropyrimidin-2-yl)ethynyl)-1H-indazol-1-yl)acetyl)-N-(6-bromopyridin-2-yl)-4-fluoropyrrolidine-2-carboxamide] yielded an IC50 of less than 1 µM.
With `Cc1cnc(C#Cc2ccc3c(c2)c(C(N)=O)nn3CC(=O)N2C[C@H](F)C[C@H]2C(=O)Nc2cccc(Br)n2)nc1` [Compound 91, 1-(2-((2S,4R)-2-(6-bromopyridin-2-ylcarbamoyl)-4-fluoropyrrolidin-1-yl)-2-oxoethyl)-5-((5-methylpyrimidin-2-yl)ethynyl)-1H-indazole-3-carboxamide] the IC50 was less than 1 µM.
Work on `COc1ncc(C#Cc2ccc3c(c2)c(C(N)=O)nn3CC(=O)N2C[C@H](F)C[C@H]2C(=O)Nc2cccc(Br)n2)cn1` [Compound 92, 1-(2-((2S,4R)-2-(6-bromopyridin-2-ylcarbamoyl)-4-fluoropyrrolidin-1-yl)-2-oxoethyl)-5-((2-methoxypyrimidin-5-yl)ethynyl)-1H-indazole-3-carboxamide] yielded an IC50 of less than 1 µM.
